Experiments:
[1] = target: T1, H3R (human histamine 3 receptor) (Homo sapiens, UniProt Q9Y5N1); assay: competitive inhibition SPA binding assay, H3R, (3H)-n-alpha-methylhistamine; conditions: selectivity panel
T1 construct: expressed in transfected cells
From the text: The inventive compounds can readily be evaluated by using a competitive inhibition Scintillation Proximity Assay (SPA) based on a H3R binding assay using [3H] α methylhistamine as ligand. Stable cell lines, including but not limited to HEK can be transfected with cDNA coding for H3R to prepare membranes used for the binding assay. The technique is illustrated below (Preparation of Histamine Receptor Subtype Membranes) for the histamine receptor subtypes.
(§1) cDNA for the human histamine 3 receptor was cloned and expressed as described in (A. Preparation H1R membranes), above. Transfected cells were selected using G418 ([…]), grown, and tested for histamine binding by the SPA described above. For total binding, cells were assayed in a SPA reaction described above containing 50 mM Tris-HCL (assay buffer), pH 7.6, 1 mg wheat germ agglutinin SPA beads (Amersham Pharmacia Biotech, #RPNQ0001), and 1 nM (3H)-n-alpha-methylhistamine (NEN, NET1027) (total volume per well=200 μl). Thioperimide was added to determine non-specific binding. Several clones were selected as positive for binding, and a single clone (H3R8) was used to prepare membranes for binding studies described above. Five micrograms of protein was used per well in the SPA receptor-binding assay.
To investigate the selectivity of the antagonists for the histamine receptors, a competitive binding assay described above was performed. […]

[2] = target: T2, H4R (human GPRv53 receptor) (Homo sapiens, UniProt Q9H3N8); assay: competitive binding assay, GPRv53 (H4R), (3H) Histamine
T2 construct: expressed in transfected cells; host or cells: HEK293 GPRv53 50 cells (whole-cell homogenate/lysate)
T2 sequence (Q9H3N8 whole entry): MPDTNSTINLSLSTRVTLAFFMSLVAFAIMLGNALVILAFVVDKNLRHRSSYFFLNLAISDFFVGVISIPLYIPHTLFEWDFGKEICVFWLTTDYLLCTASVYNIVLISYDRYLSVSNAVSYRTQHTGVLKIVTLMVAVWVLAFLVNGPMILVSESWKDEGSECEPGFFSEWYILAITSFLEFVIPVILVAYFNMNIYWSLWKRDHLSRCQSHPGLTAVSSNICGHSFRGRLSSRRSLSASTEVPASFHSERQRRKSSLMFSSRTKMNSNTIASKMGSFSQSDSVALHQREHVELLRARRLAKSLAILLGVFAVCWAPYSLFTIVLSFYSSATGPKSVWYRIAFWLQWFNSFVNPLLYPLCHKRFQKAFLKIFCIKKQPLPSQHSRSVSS
Method: cDNA for the human GPRv53 receptor was cloned and expressed as described in (A. Preparation H1R membranes), above. Transfected cells were selected, tested for histamine binding, and selected. HEK293 GPRv53 50 cells were grown to confluency in DMEM/F12 (Gibco) supplemented with 5% FBS and 500 ug/ml G418 and washed with Delbecco's PBS (Gibco) and harvested by scraping. Whole cells were homogenized with a Polytron tissuemizer in binding buffer, 50 mM Tris pH 7.5. Cell lysates, 50 ug, were incubated in 96 well dishes with 3 nM (3H) Histamine and compounds in binding buffer for 2 hours at room temperature. Lysates were filtered through glass fiber filters (Perkin Elmer) with a Tomtec cell harvester. Filters were counted with melt-on scintillator sheets (Perkin Elmer) in a Wallac Trilux 1450 Microbeta Scintillation counter for 5 minutes.
(§2) To investigate the selectivity of the antagonists for the histamine receptors, a competitive binding assay described above was performed. […] Until the present invention, most known H3R antagonists also bound H4R.

[3] = target: T3, H2 (human histamine 2 receptor) (Homo sapiens, UniProt P25021); assay: competitive SPA binding assay, H2R, 3H-tiotidine; conditions: selectivity panel
T3 construct: expressed in transfected cells
T3 sequence (P25021 whole entry): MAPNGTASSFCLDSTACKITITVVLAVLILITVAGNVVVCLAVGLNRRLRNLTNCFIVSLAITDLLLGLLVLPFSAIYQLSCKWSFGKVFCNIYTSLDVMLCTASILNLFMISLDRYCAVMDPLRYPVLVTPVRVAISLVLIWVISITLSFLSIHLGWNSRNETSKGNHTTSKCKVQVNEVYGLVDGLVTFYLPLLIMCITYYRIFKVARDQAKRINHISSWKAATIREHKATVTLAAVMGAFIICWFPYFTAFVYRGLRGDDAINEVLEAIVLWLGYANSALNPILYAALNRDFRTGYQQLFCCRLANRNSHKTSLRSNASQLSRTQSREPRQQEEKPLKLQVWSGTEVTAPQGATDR
Method: cDNA for the human histamine 2 receptor was cloned, expressed and transfected into HEK 293 cells as described above. Histamine binding to cells was assayed by SPA described above. For total binding, cells were assayed in a SPA reaction containing 50 mM Tris-HCl (assay buffer), pH 7.6, 1 mg wheat germ agglutinin SPA beads (Amersham Pharmacia Biotech, #RPNQ0001), and 6.2 nM ^3H-tiotidine (Net-688, NEN) (total volume per well=200 μl). Cimetidine (10 μM, Sigma #C4522) was added to appropriate wells to determine non-specific binding.
Several clones were selected as positive for binding, and a single clone (H2R10) was used to prepare membranes for binding studies. Five micrograms of protein was used per well in the SPA receptor-binding assay.
as §2

[4] = target: T4, H1R (human histamine 1 receptor) (Homo sapiens, UniProt P35367); assay: competitive SPA binding assay, H1R, 3H-pyrilamine; conditions: selectivity panel
T4 construct: expressed in transfected cells
T4 sequence (P35367 whole entry): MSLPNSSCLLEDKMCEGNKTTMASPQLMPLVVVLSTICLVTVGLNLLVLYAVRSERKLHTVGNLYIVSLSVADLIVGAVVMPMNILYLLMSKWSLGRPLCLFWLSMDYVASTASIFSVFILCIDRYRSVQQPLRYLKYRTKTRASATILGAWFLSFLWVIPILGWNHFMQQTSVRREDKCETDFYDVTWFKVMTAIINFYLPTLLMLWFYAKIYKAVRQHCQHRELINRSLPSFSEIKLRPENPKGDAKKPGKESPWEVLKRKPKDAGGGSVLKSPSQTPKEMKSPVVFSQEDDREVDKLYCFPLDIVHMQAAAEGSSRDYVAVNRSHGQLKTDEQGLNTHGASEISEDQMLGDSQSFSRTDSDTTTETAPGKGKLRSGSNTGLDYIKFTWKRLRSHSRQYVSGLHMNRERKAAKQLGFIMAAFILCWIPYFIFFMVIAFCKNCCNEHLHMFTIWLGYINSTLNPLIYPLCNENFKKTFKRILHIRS
Method: cDNA for the human histamine 1 receptor (H1R) was cloned into a mammalian expression vector containing the CMV promoter (pcDNA3.1(+), Invitogen) and transfected into HEK293 cells using the FuGENE Tranfection Reagent (Roche Diagnostics Corporation). Transfected cells were selected using G418 (500 μ/ml). Colonies that survived selection were grown and tested for histamine binding to cells grown in 96-well dishes using a scintillation proximity assay (SPA) based radioligand binding assay. Briefly, cells, representing individual selected clones, were grown as confluent monolayers in 96-well dishes (Costar Clear Bottom Plates, #3632) by seeding wells with 25,000 cells and growing for 48 hours (37° C., 5% CO2). Growth media was removed and wells were rinsed two times with PBS (minus Ca^2+ or Mg^2+). For total binding, cells were assayed in a SPA reaction containing 50 mM Tris-HCL (assay buffer), pH 7.6, 1 mg wheat germ agglutinin SPA beads (Amersham Pharmacia Biotech, #RPNQ0001), and 0.8 nM ^3H-pyrilamine (Net-594, NEN) (total volume per well ˜200 μl). Astemizole (10 μM, Sigma #A6424) was added to appropriate wells to determine non-specific binding. Plates were covered with FasCal and incubated at room temperature for 120 minutes. […] Plates were counted in a Wallac Trilux 1450 Microbeta scintillation counter. […]

[5] = target: T5, H3R membranes (H3R8-expressing HEK293 cell line) (Homo sapiens, UniProt Q9Y5N1); assay: [35S] GTP γ[S] binding assay, antagonist activity in the presence of agonist R(−)alpha methylhistamine; assay type: biochemical; conditions: results given below the [35S]GTPγS assay
T5 construct: expressed in transfected cells
T5 sequence (Q9Y5N1 whole entry): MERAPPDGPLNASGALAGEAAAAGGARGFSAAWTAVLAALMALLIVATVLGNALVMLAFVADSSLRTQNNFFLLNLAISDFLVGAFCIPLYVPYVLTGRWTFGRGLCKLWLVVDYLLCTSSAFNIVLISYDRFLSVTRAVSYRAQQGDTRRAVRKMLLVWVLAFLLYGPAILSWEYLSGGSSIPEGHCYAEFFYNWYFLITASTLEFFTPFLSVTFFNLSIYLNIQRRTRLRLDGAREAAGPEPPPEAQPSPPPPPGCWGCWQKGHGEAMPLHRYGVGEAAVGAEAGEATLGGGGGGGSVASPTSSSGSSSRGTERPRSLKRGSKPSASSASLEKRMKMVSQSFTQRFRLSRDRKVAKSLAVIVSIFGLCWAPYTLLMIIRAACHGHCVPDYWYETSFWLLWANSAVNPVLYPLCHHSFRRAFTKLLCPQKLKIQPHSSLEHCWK
Method: Membranes isolated as described in (Preparation of Histamine Receptor Subtype Membranes) were used in a [35S]GTPχS functional assay. Binding of [35S]GTPχS to membranes indicates agonist activity. Compounds of the invention of Formula I or II or III were tested for their ability to inhibit binding in the presence of agonists. Alternately, the same transfected cell lines were used for a cAMP assay wherein H3R agonists inhibited forskolin-activated synthesis of cAMP. Compounds of Formula I or II or III were tested for their ability to permit forskolin-stimulated cAMP synthesis in the presence of agonist.
as §1, with “Several clones were selected as positive for binding, and a single clone (H3R8) was used to prepare membranes for binding studies described above. Five micrograms of protein was used per well in the SPA receptor-binding assay.” left out
Antagonist activity of selected compounds was tested for inhibition of [35S] […] Plates were counted in Wallac Trilux 1450 Microbeta scintillation counter for 1 minute. […]

T1 sequence (Q9Y5N1 whole entry): as above

| Structure (SMILES) | Ki [1] | Ki ([2]; selectivity panel) | inhibition of binding to H4R compared to H3R ([2]; statement in words) | Ki [3] | Ki [4] | Ki [5] |
| --- | --- | --- | --- | --- | --- | --- |
| O=C(c1ccc2c(c1)CCCC2)N1CCC[C@H]1CN1CCCC1 [Example 15, (S)-(2-Pyrrolidin-1-ylmethyl-pyrrolidin-1-yl)-(5,6,7,8-tetrahydro-naphthalen-2-yl)-methanone] | 1.8 nM | ≥ 20000 nM | did not inhibit binding H4R | ≥ 17800 nM | ≥ 20000 nM |  |
| O=C(c1ccc2c(c1)CCC(N1CCOCC1)C2)N1CCC[C@H]1CN1CCCC1 (mixture of isomers) [Example 6, (6-Morpholin-4-yl-5,6,7,8-tetrahydro-naphthalen-2-yl)-(2-pyrrolidin-1-ylmethyl-pyrrolidin-1-yl)-methanone] |  |  |  |  |  | 7.8 nM |
| O=C(c1ccc2c(c1)CCC(N1CCCC1)C2)N1CCC[C@H]1CN1CCCC1 (mixture of isomers) [Example 3, (2-Pyrrolidin-1-ylmethyl-pyrrolidin-1-yl)-(6-pyrrolidin-1-yl-5,6,7,8-tetrahydro-naphthalen-2-yl)-methanone] |  |  |  |  |  | 1.5 nM |

— patent publication US7902191B2, “Histamine H3 receptor antagonists, preparation and therapeutic uses” (Eli Lilly and Company, priority 2004, dated 2011)
